A short description of this data set: Storage stability of Oligosaccharide Crystals (I) and freeze-dried Oligosaccharide (I) powders (residual rate by HPLC). Conditions: 105° C. in the atmosphere under ordinary pressure. The class given is physicochemical. Here is the method:
The storage stability of Oligosaccharide Crystals (I) obtained in Examples 1 to 3 and freeze-dried Oligosaccharide (I) powders obtained in Reference Examples 1 to 3 was examined by keeping them at 105° C. in the atmosphere under ordinary pressure for 20 days and measuring the residual rate of Oligosaccharides (I).
The residual rate of Oligosaccharides (I) in the samples was measured by high performance liquid chromatography (HPLC) and expressed in terms of HPLC purity (%)
Measurement conditions for HPLC are as follows.
Analyzer: product of Dionex Corporation
Column temperature: 30° C.
Mobile phase: 10-100% aqueous solution of NaOH
(500 mmol/L) (Gradient elution in 11 minutes)
Detection: electrochemical detection (PAD method)

In the case of `CC(=O)N[C@H]1[C@H](O[C@H]2[C@@H](O)[C@@H](CO)O[C@@H](O[C@H]3[C@H](O)[C@@H](O)C(O)O[C@@H]3CO)[C@@H]2O)O[C@H](CO)[C@@H](O[C@@H]2O[C@H](CO)[C@H](O)[C@H](O[C@@H]3O[C@H](CO)[C@@H](O)[C@H](O)[C@H]3NC(C)=O)[C@H]2O)[C@@H]1O` (stereo partly drawn) [Crystals No. 3, GlcNAcβ1, 3Galβ1, 4GlcNAcβ1, 3Galβ1, 4Glc], the “Residual rate of oligosaccharides: HPLC purity (%)” value (“Residual rate … (%)” for short) (days that passed: 0) worked out at 98.8%; the “Residual rate … (%)” value (days that passed: 1) is listed as 99.3%; the “Residual rate … (%)” value (days that passed: 4) is given as 99.0%; the “Residual rate … (%)” value (days that passed: 7) came out at 99.0%; the “Residual rate … (%)” value (days that passed: 20) was 99.3%.

For the compound `CC(=O)N[C@H]1[C@H](O[C@H]2[C@@H](O)[C@@H](CO)O[C@@H](O[C@H]3[C@H](O)[C@@H](O)C(O)O[C@@H]3CO)[C@@H]2O)O[C@H](CO)[C@@H](O[C@@H]2O[C@H](CO)[C@H](O)[C@H](O[C@@H]3O[C@H](CO)[C@@H](O)[C@H](O)[C@H]3NC(C)=O)[C@H]2O)[C@@H]1O` (stereo partly drawn) [Freeze-dried GlcNAcβ1, 3Gal-β1, 4GlcNAcβ1, 3Galβ1, 4Glc powd] [GlcNAcβ1,3Galβ1,4GlcNAcβ1,3Galβ1,4Glc], the “Residual rate … (%)” value stood at 98.6% (days that passed: 0); 98.2% (days that passed: 1); 97.4% (days that passed: 4); 95.4% (days that passed: 7); 85.2% (days that passed: 20).

As for `CC(=O)N[C@H]1[C@H](O[C@H]2[C@@H](O)[C@@H](CO)O[C@@H](O[C@H]3[C@H](O)[C@@H](O)C(O)O[C@@H]3CO)[C@@H]2O)O[C@H](CO)[C@@H](O[C@@H]2O[C@H](CO)[C@H](O)[C@H](O)[C@H]2O)[C@@H]1O` (stereo partly drawn) [Crystals No. 2, Galβ1, 4GlcNAcβ1, 3Galβ1, 4Glc], the “Residual rate … (%)” value amounted to 99.3% (days that passed: 0); 99.0% (days that passed: 1); 99.2% (days that passed: 4); 99.0% (days that passed: 7); 98.8% (days that passed: 20).

As to `CC(=O)N[C@H]1[C@H](O[C@H]2[C@@H](O)[C@@H](CO)O[C@@H](O[C@H]3[C@H](O)[C@@H](O)C(O)O[C@@H]3CO)[C@@H]2O)O[C@H](CO)[C@@H](O)[C@@H]1O` (stereo partly drawn) [Freeze-dried GlcNAcβ1, 3Gal-β1, 4Glc powders] [GlcNAcβ1,3Galβ1,4Glc], the “Residual rate … (%)” value reads like this: (days that passed: 0) 99.8%; (days that passed: 1) 99.7%; (days that passed: 4) 97.0%; (days that passed: 7) 98.8%; (days that passed: 20) 93.8%.

Regarding `CC(=O)N[C@H]1[C@H](O[C@H]2[C@@H](O)[C@@H](CO)O[C@@H](O[C@H]3[C@H](O)[C@@H](O)C(O)O[C@@H]3CO)[C@@H]2O)O[C@H](CO)[C@@H](O)[C@@H]1O` (stereo partly drawn) [Crystals No. 1, GlcNAcβ1, 3Galβ1, 4Glc], the “Residual rate … (%)” value (days that passed: 0) is on record as 98.0%; the “Residual rate … (%)” value (days that passed: 1) is listed as 99.7%; the “Residual rate … (%)” value (days that passed: 4) turned out to be 99.7%; the “Residual rate … (%)” value (days that passed: 7) is on record as 99.7%; the “Residual rate … (%)” value (days that passed: 20) is 98.9%.

Turning to `CC(=O)N[C@H]1[C@H](O[C@H]2[C@@H](O)[C@@H](CO)O[C@@H](O[C@H]3[C@H](O)[C@@H](O)C(O)O[C@@H]3CO)[C@@H]2O)O[C@H](CO)[C@@H](O[C@@H]2O[C@H](CO)[C@H](O)[C@H](O)[C@H]2O)[C@@H]1O` (stereo partly drawn) [Freeze-dried Galβ1, 4GlcNAc-β1, 3Galβ1, 4Glc powders] [Galβ1,4GlcNAcβ1,3Galβ1,4Glc], the “Residual rate … (%)” value by setting is: (days that passed: 0) 99.3%; (days that passed: 1) 98.6%; (days that passed: 4) 97.6%; (days that passed: 7) 96.2%; (days that passed: 20) 90.9%.

Source of the values: patent publication US20040149200A1, “Crystals of an oligosaccharides and process for preparation thereof” (priority 2001, published 2004).
